Results from patent US10619138B2, “Herbicide-resistant hydroxyphenylpyruvate dioxygenases” (BASF SE, priority 2013, dated 2020).

Columns and labels:
[1] = molecular target: T1, Arabidopsis HPPD (SEQ ID NO: 42) (Arabidopsis thaliana, UniProt P93836); assay: In vitro HPPD activity assay (HGA by HPLC), wildtype enzyme characterization; assay type: biochemical; settings: for TI (normalized tolerance index): normalized on Arabidopsis wild-type HPPD, reference enzyme
T1 construct: Arabidopsis (42); His tag; made in house; host or cells: E. coli BL21 (DE3)
T1 sequence (P93836 1-445): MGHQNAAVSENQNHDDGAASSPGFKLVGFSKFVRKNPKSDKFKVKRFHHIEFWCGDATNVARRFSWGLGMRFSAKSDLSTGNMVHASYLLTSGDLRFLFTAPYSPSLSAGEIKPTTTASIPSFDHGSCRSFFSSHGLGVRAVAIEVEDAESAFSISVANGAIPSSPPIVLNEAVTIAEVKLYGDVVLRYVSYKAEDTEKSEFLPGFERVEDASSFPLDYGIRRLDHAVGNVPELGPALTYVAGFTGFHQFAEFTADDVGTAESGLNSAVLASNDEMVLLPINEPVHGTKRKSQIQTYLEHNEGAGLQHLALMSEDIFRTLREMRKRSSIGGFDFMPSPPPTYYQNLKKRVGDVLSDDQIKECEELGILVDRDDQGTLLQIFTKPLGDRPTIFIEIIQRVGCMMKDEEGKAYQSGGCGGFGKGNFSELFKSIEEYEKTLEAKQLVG
Method: (§1) The activity assay for HPPD is based on the analysis of homogentisic acid by reversed phase HPLC.
(§2) The assay mixture can contain 150 mM potassium phosphate buffer pH 7.0, 50 mM L-ascorbic acid, 100 μM Catalase (Sigma-Aldrich), 1 μM FeSO4 and 0.2 units of purified HPPD enzyme in a total volume of 505 μl. 1 unit is defined as the amount of enzyme that is required to produce 1 nmol of HGA per minute at 20° C.
(§3) The reaction is allowed to proceed for 45 min at room temperature. The reaction is stopped by the addition of 50 μl of 4.5 M phosphoric acid. The sample is filtered using a […] pore size PVDF filtration device.
(§4) 5 μl of the cleared sample is analyzed on an UPLC HSS T3 column (particle size 1.8 μm, dimensions 2.1×50 mm; Waters) by isocratic elution using 90% 20 mM NaH2PO4 pH 2.2, 10% methanol (v/v).
(§5) HGA is detected electrochemically at 750 mV (mode: DC; polarity: positive) and quantified by integrating peak areas (Empower software; Waters).
Inhibitors are dissolved in DMSO (dimethylsulfoxide) to a concentration of 0.5 mM. From this stock solution serial five-fold dilutions are prepared in DMSO, which are used in the assay. The respective inhibitor solution accounts for 1% of the assay volume. […] Activities are normalized by setting the uninhibited enzyme activity to 100%. IC50 values are calculated using non-linear regression.
(§6) Using methods which are described in the above examples or well known in the art, purified, recombinant wildtype HPPD enzymes are characterized with respect to their kinetic properties and sensitivity towards HPPD inhibiting herbicides. Apparent michaelis constants (Km) and maximal reaction velocities (Vmax) are calculated by non-linear regression with the software GraphPad Prism 5 (GraphPad Software, La Jolla, USA) using a substrate inhibition model. […] Weighted means (by standard error) of Km and IC50 values are calculated from at least three independent experiments.
(§7) Field performance of the HPPD enzyme, which is used as a herbicide tolerance trait may depend not only on its lack of sensitivity towards HPPD inhibiting herbicides but also on its activity. To assess the potential performance of a herbicide tolerance trait a tolerance index (TI) is calculated using the following formula: […]
(§8) Easy comparison and ranking of each trait is enabled by normalizing tolerance indexes on Arabidopsis wild-type HPPD.

[2] = test system: Microscilla HPPD (SEQ ID NO: 20); assay: In vitro HPPD activity assay, tolerance index; assay type: biochemical, Microscilla marina; settings: normalized on Arabidopsis wild-type HPPD
Method: as §1, §2, §3, §4, §5
Inhibitors are dissolved in DMSO (dimethylsulfoxide) to a concentration of 0.5 mM. From this stock solution serial five-fold dilutions are prepared in DMSO, which are used in the assay. The respective inhibitor solution accounts for 1% of the assay volume. Thus, final inhibitor concentrations range from 5 μM to 320 pM, respectively. Activities are normalized by setting the uninhibited enzyme activity to 100%. IC50 values are calculated using non-linear regression.
as §6, with “experiments. The Cheng-Prusoff equation for competitive inhibition (Cheng, Y. C.; Prusoff, W. H. Biochem Pharmacol 1973, 22, 3099-3108) is used to calculate dissociation constants (Ki).” for “experiments.”
as §7, §8

[3] = test system: untransformed wild-type (WT) Arabidopsis plants; assay: Greenhouse herbicide spray test, wild-type plants; assay type: in vivo, Arabidopsis thaliana; settings: two weeks after treatment, mean of three plants
Description: (§9) Additionally, T1 and T2 transgenic Arabidopsis plants can be tested for improved tolerance to HPPD-inhibiting herbicides in greenhouse studies. Herbicide injury scoring is done 2-3 weeks after treatment and is rated on a scale of 0 to 100%, 0% being no injury and 100% being complete death.
(§10) Transgenic Arabidopsis plants were sprayed with a range of doses from 1.56-50 g/ha with HPPD-inhibiting herbicides and injury evaluations were taken two weeks after treatment. […] As depicted in Table 6, control plants are severely injured by all doses of herbicide applied, with at least 70% of leaf material being damaged at the lowest application rate. For example, transgenic plants expressing Scenedesmus HPPD have an excellent tolerance to all herbidcides tested. […] After application of Inhibitor 2, only 18% of leaf material was damaged resulting in a 5-fold tolerance compared to the WT at the highest application rate.

[4] = test system: transgenic Arabidopsis plants expressing Scenedesmus HPPD; assay: Greenhouse herbicide spray test, transgenic plants (T2); assay type: in vivo, Arabidopsis thaliana; settings: for Injury evaluation, scale 0-100% / tolerance of transgenic plants (in words): two weeks after treatment; for tolerance of transgenic plants (in words): doses 1.56-50 g/ha
Description: as §9, §10

[5] = test system: transgenic Arabidopsis plants expressing Algoriphagus HPPD; assay: as above; assay type: in vivo, Arabidopsis thaliana; settings: two weeks after treatment
Description: as §9, §10

[6] = test system: transgenic Arabidopsis plants expressing Acidobacterium HPPD; assay: as above; assay type: in vivo, Arabidopsis thaliana; settings: for Injury evaluation, scale 0-100% / tolerance of transgenic plants (in words): two weeks after treatment; for tolerance of transgenic plants (in words): doses 1.56-50 g/ha
Description: as §9, §10

[7] = Scenedesmus HPPD Event 1, 12.5 g/ha
[8] = Scenedesmus HPPD Event 2, 12.5 g/ha
[9] = Algoriphagus HPPD Event 1, 12.5 g/ha
[10] = Algoriphagus HPPD Event 2, 12.5 g/ha
[11] = Acidobacterium HPPD Event 1, 12.5 g/ha
[12] = Acidobacterium HPPD Event 2, 12.5 g/ha
[13] = Scenedesmus HPPD Event 1, 3.125 g/ha
[14] = Scenedesmus HPPD Event 1, 6.25 g/ha
[15] = Scenedesmus HPPD Event 2, 3.125 g/ha
[16] = Scenedesmus HPPD Event 2, 6.25 g/ha
[17] = Algoriphagus HPPD Event 1, 3.125 g/ha
[18] = Algoriphagus HPPD Event 1, 6.25 g/ha
[19] = Algoriphagus HPPD Event 2, 3.125 g/ha
[20] = Algoriphagus HPPD Event 2, 6.25 g/ha
[21] = Acidobacterium HPPD Event 1, 3.125 g/ha
[22] = Acidobacterium HPPD Event 1, 6.25 g/ha
[23] = Acidobacterium HPPD Event 2, 3.125 g/ha
[24] = Acidobacterium HPPD Event 2, 6.25 g/ha

SMILES	TI (normalized tolerance index) [1]	TI (normalized tolerance index) [2]	Injury evaluation, scale 0-100% ([3]; 12.5 g/ha) [%]	Injury evaluation, scale 0-100% [4, 7] [%]	Injury evaluation, scale 0-100% [4, 8] [%]	tolerance of transgenic plants (in words) [4]	Injury evaluation, scale 0-100% [5, 9] [%]	Injury evaluation, scale 0-100% [5, 10] [%]	Injury evaluation, scale 0-100% [6, 11] [%]	Injury evaluation, scale 0-100% [6, 12] [%]	tolerance of transgenic plants (in words) [6]	Injury evaluation, scale 0-100% ([3]; 3.125 g/ha) [%]	Injury evaluation, scale 0-100% [4, 13] [%]	Injury evaluation, scale 0-100% [4, 14] [%]	Injury evaluation, scale 0-100% [4, 15] [%]	Injury evaluation, scale 0-100% [4, 16] [%]	Injury evaluation, scale 0-100% [5, 17] [%]	Injury evaluation, scale 0-100% [5, 18] [%]	Injury evaluation, scale 0-100% [5, 19] [%]	Injury evaluation, scale 0-100% [5, 20] [%]	other results
CN(c1c(Cl)ccc(C2=C(O)c3ncccc3C(C)(C)S2(=O)=O)c1Cl)S(C)(=O)=O [Inhibitor 4, N-[2,6-dichloro-3-(8-hydroxy-5,5-dimethyl-6,6-dioxo-thiopyrano[4,3-b]pyridin-7-yl)phenyl]-N-methyl-methanesulfonamide]	1	112.0	75	13	20	outstanding tolerance	40	33	20	23	not severly injured	–	–	–	–	–	–	–	–	–	Ki [1]: 29 nM; TI (tolerance index) ([1]; not normalized): 23.8E−3; Injury evaluation, scale 0-100% ([3]; 25 g/ha): 83%; Injury evaluation, scale 0-100% ([3]; 50 g/ha): 85%; Injury evaluation, scale 0-100% ([4]; Scenedesmus HPPD Event 1, 25 g/ha): 18%; Injury evaluation, scale 0-100% ([4]; Scenedesmus HPPD Event 1, 50 g/ha): 65%; Injury evaluation, scale 0-100% ([4]; Scenedesmus HPPD Event 2, 25 g/ha): 25%; Injury evaluation, scale 0-100% ([4]; Scenedesmus HPPD Event 2, 50 g/ha): 25%; Injury evaluation, scale 0-100% ([5]; Algoriphagus HPPD Event 1, 25 g/ha): 45%; Injury evaluation, scale 0-100% ([5]; Algoriphagus HPPD Event 1, 50 g/ha): 50%; Injury evaluation, scale 0-100% ([5]; Algoriphagus HPPD Event 2, 25 g/ha): 33%; Injury evaluation, scale 0-100% ([5]; Algoriphagus HPPD Event 2, 50 g/ha): 60%; Injury evaluation, scale 0-100% ([6]; Acidobacterium HPPD Event 1, 25 g/ha): 25%; Injury evaluation, scale 0-100% ([6]; Acidobacterium HPPD Event 1, 50 g/ha): 35%; Injury evaluation, scale 0-100% ([6]; Acidobacterium HPPD Event 2, 25 g/ha): 25%; Injury evaluation, scale 0-100% ([6]; Acidobacterium HPPD Event 2, 50 g/ha): 60%; leaf material harmed ([6]; after application of 12.5 g/ha, both events): 20-23%
CS(=O)(=O)c1ccc(C(=O)C2C(=O)CCCC2=O)c([N+](=O)[O-])c1 [Inhibitor 2, 2-(4-methylsulfonyl-2-nitro-benzoyl)cyclohexane-1,3-dione]	1	0.2	–	–	–	outstanding tolerance	–	–	–	–	significantly increased tolerance	93	13	18	38	38	53	65	60	75	Injury evaluation, scale 0-100% ([3]; 1.56 g/ha): 83%; Injury evaluation, scale 0-100% ([3]; 6.25 g/ha): 93%; Injury evaluation, scale 0-100% ([4]; Scenedesmus HPPD Event 1, 1.56 g/ha): 10%; Injury evaluation, scale 0-100% ([4]; Scenedesmus HPPD Event 2, 1.56 g/ha): 23%; tolerance compared to the WT ([4]; at the highest application rate): 5 fold; Injury evaluation, scale 0-100% ([5]; Algoriphagus HPPD Event 1, 1.56 g/ha): 48%; Injury evaluation, scale 0-100% ([5]; Algoriphagus HPPD Event 2, 1.56 g/ha): 45%; Injury evaluation, scale 0-100% ([6]; Acidobacterium HPPD Event 1, 1.56 g/ha): 8%; Injury evaluation, scale 0-100% [6, 21]: 8%; Injury evaluation, scale 0-100% [6, 22]: 45%; Injury evaluation, scale 0-100% ([6]; Acidobacterium HPPD Event 2, 1.56 g/ha): 10%; Injury evaluation, scale 0-100% [6, 23]: 33%; Injury evaluation, scale 0-100% [6, 24]: 55%; leaf damage ([6]; at the lowest application rate, both events): 8-10%
CSc1c(Cl)cc(F)c(C(=O)Nc2nnnn2C)c1Cl [Inhibitor 11, 2,4-dichloro-6-fluoro-3-methylsulfanyl-N-(1-methyltetrazol-5-yl)benzamide]	1	0.1	83	33	15	outstanding tolerance	98	97	98	98	–	70	13	15	13	13	55	73	68	90	Injury evaluation, scale 0-100% [6, 21]: 53%; Injury evaluation, scale 0-100% [6, 22]: 65%; Injury evaluation, scale 0-100% [6, 23]: 58%; Injury evaluation, scale 0-100% [6, 24]: 93%
